Laboratory results taken from PMC4882560, “Polyketides from the Mangrove-Derived Endophytic Fungus Nectria sp. HN001 and Their α-Glucosidase Inhibitory Activity” (Marine Drugs, 2016).

System: α-Glucosidase from Saccharomyces cerevisiae
Experiment: In vitro α-glucosidase inhibitory activity (UV absorbance at 405 nm, p-nitrophenyl glycoside substrate)
Assay type: biochemical
Settings: for α-glucosidase inhibitory activity (result in words): compared to positive control acarbose; for IC50: mean ± SD from three parallel measurements, phosphate buffer pH 7.0, 37 °C, absorbance at 405 nm, read-out: IC50, inhibitory effects against α-glucosidase
Procedure: Optical rotations were measured on a Bellingham-Stanley ADP 440+ polarimeter at 25 °C. IR data were recorded on a Nicolet 5DX-FTIR (Thermo Fisher Scientific, Inc., Hudson, NH, USA), in KBr discs. UV data were recorded on a Shimadzu UV-240 spectrophotometer (Shimadzu, Kyoto, Japan). The ^1H NMR (500 MHz), ^13C NMR (125 MHz), and 2D NMR spectra were obtained on a Bruker AVANCE-500 (Bruker BioSpin Corporation, Billerica, MA, USA) using TMS as an internal reference. HRESIMS were acquired on a Thermofisher LTQ Orbitrp Elite LC-MS spectrometer (Thermo Fisher Scientific, Inc., Hudson, NH, USA), and the ESIMS data were measured on a Micro Mass Q-TOF spectrometer (Waters Corporation, Milford, MA, USA). TLC analysis was carried out on silica gel plates (Marine Chemical Ltd., Qingdao, China). RP-C18 silica gel (Fuji, 40–75 μm, Fuji Silysia Chemical Ltd., Kasugai, Japan), Silica gel (200–300 mesh, Marine Chemical Ltd., Qingdao, China), High silica gel (H, Marine Chemical Ltd., Qingdao, China), and Sephadex LH-20 (GE Healthcare Bio-Sciences AB, Stockholm, Sweden) were used for column chromatography (CC).
An assay of α-glucosidase inhibitory activity was performed using a reported method, with slight modifications. All the assays were performed using 0.01 M KH2PO4-K2HPO4 buffers, pH 7.0, and a Bio-Rad iMark microplate reader (Bio-Rad Laboratories, Inc., Kyoto, Japan). Enzyme solution was prepared to give 2.0 Units/mL in 2 mL aliquots. The assay medium contained phosphate buffer, pH 7.0 (130 μL), 10 μL of enzyme solution, 20 μL of DMSO or inhibitor (dissolved in DMSO), and 40 μL of substrate (p-nitrophenyl glycoside, 3 mg/mL). The substrate was added to the assay medium containing enzyme and buffer with inhibitor added after 15 min of incubation time at 37 °C. The activity was determined by measuring the increase in absorbance at 405 nm for a 1 min interval. Calculations were performed according to the equation: η (%) = [(B − S)/B] × 100%
(B stands for the assay medium with DMSO; S stands for the assay medium with inhibitor). All measurements were done in triplicate from two independent experiments. The reported IC50 was the average value of two independent experiments.

SMILES	α-glucosidase inhibitory activity (result in words)	IC50 [µM]
COC(=O)/C=C/C(C)=C/C=C/C(C)=C/C(C)=C/C(=O)O [Compound 2, 2E, 4E, 6E, 8E, 10E-12-methoxy-3,5,9-trimethyl-12-oxododeca-2,4,6,8, 10-pentaenoic acid]	significant inhibitory activity	23.5 ± 0.3
CC(=O)C[C@@H](O)Cc1cc2cc(O)cc(O)c2c(=O)o1 [Compound 6, citreoisocoumarin]	–	538.7 ± 4.3
C[C@@H](O)C[C@@H](O)Cc1cc2cc(O)cc(O)c2c(=O)o1 [Compound 5, citreoisocoumarinol]	–	392.5 ± 1.7
CC(/C=C/C(=O)O)=C\C=C\C(C)=C\C(C)=C\C(=O)O [Compound 1, 2E, 4E, 6E, 8E, 10E-3,5,9-trimethyldodeca-2,4,6,8, 10-pentaenedioic acid]	–	121.8 ± 0.4
COC(=O)/C=C/C(C)=C/C=C/C(C)=C\C(C)=C\C(=O)O [Compound 3, 2E, 4Z, 6E, 8E, 10E-12-methoxy-3,5,9-trimethyl-12-oxododeca-2,4,6,8, 10-pentaenoic acid]	significant inhibitory activity	42.3 ± 0.2

Results, then the compound that gave them:

α-glucosidase inhibitory activity (result in words)	IC50 [µM]	SMILES
did not display inhibitory activity	> 900	Cc1cc(=O)cc(Cc2cc(O)cc(O)c2)o1 [Compound 7, macrocarpon C]
–	343.7 ± 1	C[C@H](O)C[C@@H](O)Cc1cc2cc(O)cc(O)c2c(=O)o1 [Compound 4, 12-epicitreoisocoumarinol]
